What was measured:
[1] = system: PCK rats; assay: Hepatic and renal laboratory parameters in PCK rats treated with octreotide; details: for Alkaline Phosphatase / Aspartate Aminotransferase / Bilirubin Direct / Bilirubin Total / Blood Urea Nitrogen / Creatinine / Protein total: Octreotide (10 μg)
Protocol: (§1) Three week old PCK rats (n=60) were divided into five groups (three animals of each gender per treatment group). Each group was divided into two subgroups. […] Each animal was injected intraperitoneally every 12 hours. […] The control groups received an equal volume of saline.
(§2) At 4, 8, 12 and 16 weeks of age, animals were anesthetized with pentobarbital (50 mg/kg body weight, ip). Blood was collected by cardiac puncture for determination of hepatic and renal laboratory parameters and cAMP levels. Liver and kidney tissue sections (5 μm) were stained with hematoxylin-eosin and picrosirius red for analysis using light microscopy. Renal and hepatic fibrosis and cystic scores were measured using Meta-Morph software (Universal Imaging, West Chester, Pa., USA), a light microscope with a color digital camera (Nikon DXM 1200), and a Pentium IBM-compatible computer (Del OptiPlex). To measure the volume of a cyst or fibrosis, a colored threshold was applied at a level that allowed cystic tissue to be distinguished from non-cystic tissue and picrosirius red-positive stained fibrotic tissue to be distinguished from the background. The cystic and fibrotic scores were expressed as a percentage of total tissue.

[2] = system: PCK rats; assay: Body, liver and kidney weight in PCK rats treated with octreotide; type: in vivo, rat
Protocol: (§3) Each group was divided into two subgroups. […] Each animal was injected intraperitoneally every 12 hours. […] The control groups received an equal volume of saline.

[3] = system: cAMP levels in bile ducts and serum of PCK rats; assay: cAMP levels in freshly isolated bile ducts and serum of PCK rats treated with octreotide; type: in vivo, rat
Protocol: The concentration of cAMP was measured in freshly isolated and cultured bile ducts and in serum. Serum was diluted 1:10 before assay. Cultured bile ducts were first released from the gel by adding 0.4 mL of high-activity type XI collagenase for 45 min. at 37° C. and washing twice with medium. cAMP concentrations were determined using the Bridge-It™ cAMP designer assay (Mediomics, LLC, St. Louis, Mo.). Results were expressed as pmol per μg of DNA. The amount of DNA in a single IBDU was determined using the DNeasy Tissue Kit (QIAGEN Inc., Valencia, Calif.).
as §3

[4] = system: PCK rats; assay: Hepatic and renal cyst volume and fibrosis score in PCK rats treated with octreotide; type: in vivo, rat
Protocol: as §1, §2

[5] = molecular target: somatostatin receptor 2 (SSTR2) (Homo sapiens, UniProt P30874); details: Froidevaux and Eberle 2002; cited from earlier work
[6] = molecular target: SSTR3 (Homo sapiens, UniProt P32745); details: Froidevaux and Eberle 2002; cited from earlier work
[7] = Female PCK rats, Group I, 4 weeks of treatment
[8] = Female PCK rats, Group II, 8 weeks of treatment
[9] = Female PCK rats, Group III, 12 weeks of treatment
[10] = Female PCK rats, Group IV, 16 weeks of treatment
[11] = Female PCK rats, HD, 4 weeks of treatment
[12] = Male PCK rats, Group I, 4 weeks of treatment
[13] = Male PCK rats, Group II, 8 weeks of treatment
[14] = Male PCK rats, Group III, 12 weeks of treatment
[15] = Male PCK rats, Group IV, 16 weeks of treatment
[16] = Male PCK rats, HD, 4 weeks of treatment
[17] = 100 μg/kg, 4 weeks, vs 10 μg/kg
[18] = Female PCK rats, Group I, 4 weeks of treatment, Octreotide (10 μg)
[19] = Female PCK rats, Group II, 8 weeks of treatment, Octreotide (10 μg)
[20] = Female PCK rats, Group III, 12 weeks of treatment, Octreotide (10 μg)
[21] = Female PCK rats, Group IV, 16 weeks of treatment, Octreotide (10 μg)
[22] = Female PCK rats, HD, 4 weeks of treatment, Octreotide (100 μg)
[23] = Male PCK rats, Group I, 4 weeks of treatment, Octreotide (10 μg)
[24] = Male PCK rats, Group II, 8 weeks of treatment, Octreotide (10 μg)
[25] = Male PCK rats, Group III, 12 weeks of treatment, Octreotide (10 μg)
[26] = Male PCK rats, Group IV, 16 weeks of treatment, Octreotide (10 μg)
[27] = Male PCK rats, HD, 4 weeks of treatment, Octreotide (100 μg)
[28] = octreotide-treated vs saline-treated PCK rats
[29] = octreotide 10 μg/kg, 4 to 16 weeks

Chain of somatostatin receptor 2 (SSTR2) (P30874 whole entry, species assumed): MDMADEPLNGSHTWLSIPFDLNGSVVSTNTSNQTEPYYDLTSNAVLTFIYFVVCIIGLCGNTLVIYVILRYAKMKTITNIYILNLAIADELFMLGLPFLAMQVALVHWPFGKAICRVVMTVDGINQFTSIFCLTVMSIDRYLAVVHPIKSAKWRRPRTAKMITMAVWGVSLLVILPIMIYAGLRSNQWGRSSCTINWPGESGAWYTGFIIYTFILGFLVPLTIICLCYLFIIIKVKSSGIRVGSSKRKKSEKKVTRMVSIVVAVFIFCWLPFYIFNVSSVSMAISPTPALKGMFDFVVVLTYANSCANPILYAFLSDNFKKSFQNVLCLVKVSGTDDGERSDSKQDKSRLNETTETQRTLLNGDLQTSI
Chain of SSTR3 (P32745 whole entry, species assumed): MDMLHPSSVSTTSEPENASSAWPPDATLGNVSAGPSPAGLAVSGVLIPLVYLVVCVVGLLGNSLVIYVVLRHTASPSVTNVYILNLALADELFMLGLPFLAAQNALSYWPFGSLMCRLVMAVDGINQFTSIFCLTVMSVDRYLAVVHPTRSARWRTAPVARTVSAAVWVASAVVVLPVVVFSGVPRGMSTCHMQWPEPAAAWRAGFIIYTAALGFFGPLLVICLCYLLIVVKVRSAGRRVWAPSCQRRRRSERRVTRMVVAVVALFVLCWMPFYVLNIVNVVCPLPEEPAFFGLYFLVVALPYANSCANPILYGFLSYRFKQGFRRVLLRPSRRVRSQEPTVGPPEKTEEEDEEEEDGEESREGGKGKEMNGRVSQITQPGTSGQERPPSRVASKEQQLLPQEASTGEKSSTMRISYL

C[C@@H](O)[C@@H]1NC(=O)[C@H](CCCCN)NC(=O)[C@@H](Cc2c[nH]c3ccccc23)NC(=O)[C@H](Cc2ccccc2)NC(=O)[C@@H](NC(=O)[C@H](N)Cc2ccccc2)CSSC[C@@H](C(=O)N[C@H](CO)[C@@H](C)O)NC1=O [Octreotide, octreotide]
Alkaline Phosphatase [1, 7]: 238.5 ± 23.5 U/L
Aspartate Aminotransferase [1, 7]: 135.0 ± 11.4 U/L
Bilirubin Direct [1, 7]: 0.1 mg/dL
Bilirubin Total [1, 7]: 0.2 mg/dL
Blood Urea Nitrogen [1, 7]: 16.7 ± 0.3 mg/dL
Creatinine [1, 7]: 0.55 ± 0.06 mg/dL
Protein total [1, 7]: 5.70 ± 0.20 g/dL
Aspartate Aminotransferase [1, 8]: 211.2 ± 48.4 U/L
Bilirubin Direct [1, 8]: 0.1 mg/dL
Bilirubin Total [1, 8]: 0.23 ± 0.03 mg/dL
Blood Urea Nitrogen [1, 8]: 15.7 ± 1.2 mg/dL
Creatinine [1, 8]: 0.57 ± 0.03 mg/dL
Protein total [1, 8]: 5.53 ± 0.18 g/dL
Alkaline Phosphatase [1, 9]: 237.0 ± 22.1 U/L
Aspartate Aminotransferase [1, 9]: 207.5 ± 31.5 U/L
Bilirubin Direct [1, 9]: 0.1 mg/dL
Bilirubin Total [1, 9]: 0.2 mg/dL
Blood Urea Nitrogen [1, 9]: 20.5 ± 0.5 mg/dL
Creatinine [1, 9]: 0.6 mg/dL
Protein total [1, 9]: 5.2 ± 0.17 g/dL
Alkaline Phosphatase [1, 10]: 156.7 ± 4.3 U/L
Aspartate Aminotransferase [1, 10]: 165.0 ± 36.46 U/L
Bilirubin Direct [1, 10]: 0.1 mg/dL
Bilirubin Total [1, 10]: 0.2 mg/dL
Blood Urea Nitrogen [1, 10]: 20.5 ± 0.9 mg/dL
Creatinine [1, 10]: 0.63 ± 0.03 mg/dL
Protein total [1, 10]: 5.6 ± 0.08 g/dL
Alkaline Phosphatase [1, 11]: 292.5 ± 14.3 U/L
Aspartate Aminotransferase [1, 11]: 197.4 ± 25.7 U/L
Bilirubin Direct [1, 11]: 0.1 mg/dL
Bilirubin Total [1, 11]: 0.2 mg/dL
Blood Urea Nitrogen [1, 11]: 17.0 ± 2.6 mg/dL
Creatinine [1, 11]: 0.6 mg/dL
Protein total [1, 11]: 5.3 ± 0.12 g/dL
Alkaline Phosphatase [1, 12]: 264.5 ± 41.5 U/L
Aspartate Aminotransferase [1, 12]: 212.7 ± 41.1 U/L
Bilirubin Direct [1, 12]: 0.1 mg/dL
Bilirubin Total [1, 12]: 0.17 ± 0.0 mg/dL
Blood Urea Nitrogen [1, 12]: 16.0 ± 0.6 mg/dL
Creatinine [1, 12]: 0.49 ± 0.04 mg/dL
Protein total [1, 12]: 5.74 ± 0.19 g/dL
Alkaline Phosphatase [1, 13]: 305.3 ± 20.4 U/L
Aspartate Aminotransferase [1, 13]: 188.1 ± 20.6 U/L
Bilirubin Direct [1, 13]: 0.1 mg/dL
Bilirubin Total [1, 13]: 0.2 mg/dL
Blood Urea Nitrogen [1, 13]: 18.3 ± 1.6 mg/dL
Creatinine [1, 13]: 0.6 mg/dL
Protein total [1, 13]: 5.22 ± 1.4 g/dL
Alkaline Phosphatase [1, 14]: 210.5 ± 24.5 U/L
Aspartate Aminotransferase [1, 14]: 181.7 ± 39.2 U/L
Bilirubin Direct [1, 14]: 0.1 mg/dL
Bilirubin Total [1, 14]: 0.3 mg/dL
Blood Urea Nitrogen [1, 14]: 21.5 ± 1.5 mg/dL
Creatinine [1, 14]: 0.6 mg/dL
Protein total [1, 14]: 5.2 ± 0.03 g/dL
Alkaline Phosphatase [1, 15]: 189.5 ± 18.5 U/L
Aspartate Aminotransferase [1, 15]: 145.1 ± 49.51 U/L
Bilirubin Direct [1, 15]: 0.1 mg/dL
Bilirubin Total [1, 15]: 0.2 mg/dL
Blood Urea Nitrogen [1, 15]: 20.3 ± 0.8 mg/dL
Creatinine [1, 15]: 0.65 ± 0.05 mg/dL
Protein total [1, 15]: 5.4 ± 0.35 g/dL
Alkaline Phosphatase [1, 16]: 276.8 ± 31.2 U/L
Aspartate Aminotransferase [1, 16]: 191.0 ± 24.4 U/L
Bilirubin Direct [1, 16]: 0.1 mg/dL
Bilirubin Total [1, 16]: 0.2 mg/dL
Blood Urea Nitrogen [1, 16]: 17.1 ± 1.2 mg/dL
Creatinine [1, 16]: 0.5 mg/dL
Protein total [1, 16]: 5.4 ± 0.15 g/dL
hepatic or renal function ([1]; any dose administered (10 or 100 μg/kg ip every 12 hours)): did not affect
effect on liver and kidney weights at higher dose [2, 17]: more significant effect
Kidney weight [2, 18]: 1.31 ± 0.04 % body weight
Kidney weight, decrease (↓) vs saline [2, 18]: (↓11.8%)
Liver weight [2, 18]: 5.34 ± 00.24 % body weight
Liver weight, decrease (↓) vs saline [2, 18]: (↓10.5%)
Kidney weight [2, 19]: 1.35 ± 0.06 % body weight
Kidney weight, decrease (↓) vs saline [2, 19]: (↓15.0%)
Liver weight [2, 19]: 5.37 ± 0.22 % body weight
Liver weight, decrease (↓) vs saline [2, 19]: (↓15.8%)
Kidney weight [2, 20]: 1.42 ± 0.11 % body weight
Kidney weight, decrease (↓) vs saline [2, 20]: (↓17.9%)
Liver weight [2, 20]: 5.43 ± 0.24 % body weight
Liver weight, decrease (↓) vs saline [2, 20]: (↓18.8%)
Kidney weight [2, 21]: 1.48 ± 0.13 % body weight
Kidney weight, decrease (↓) vs saline [2, 21]: (↓20.6%)
Liver weight [2, 21]: 5.62 ± 0.25 % body weight
Liver weight, decrease (↓) vs saline [2, 21]: (↓21.9%)
Kidney weight [2, 22]: 1.14 ± 0.07 % body weight
Kidney weight, decrease (↓) vs saline [2, 22]: (↓18.6%)
Liver weight [2, 22]: 4.7 ± 0.35 % body weight
Liver weight, decrease (↓) vs saline [2, 22]: (↓19.1%)
Kidney weight [2, 23]: 1.43 ± 0.04 % body weight
Kidney weight, decrease (↓) vs saline [2, 23]: (↓11.2%)
Liver weight [2, 23]: 4.76 ± 0.07 % body weight
Liver weight, decrease (↓) vs saline [2, 23]: (↓9.0%)
Kidney weight [2, 24]: 1.52 ± 0.11 % body weight
Kidney weight, decrease (↓) vs saline [2, 24]: (↓14.6%)
Liver weight [2, 24]: 5.24 ± 0.57 % body weight
Liver weight, decrease (↓) vs saline [2, 24]: (↓12.8%)
Kidney weight [2, 25]: 1.53 ± 0.15 % body weight
Kidney weight, decrease (↓) vs saline [2, 25]: (↓16.8%)
Liver weight [2, 25]: 5.31 ± 0.46 % body weight
Liver weight, decrease (↓) vs saline [2, 25]: (↓17.2%)
Kidney weight [2, 26]: 1.57 ± 0.12 % body weight
Kidney weight, decrease (↓) vs saline [2, 26]: (↓18.9%)
Liver weight [2, 26]: 5.64 ± 0.14 % body weight
Liver weight, decrease (↓) vs saline [2, 26]: (↓19.9%)
Kidney weight [2, 27]: 1.27 ± 0.13 % body weight
Kidney weight, decrease (↓) vs saline [2, 27]: (↓19.3%)
Liver weight [2, 27]: 4.18 ± 0.11 % body weight
Liver weight, decrease (↓) vs saline [2, 27]: (↓15.1%)
liver and kidney weights vs saline ([2]; each group studied): significantly decreased
body weight vs saline-treated ([2]; male or female PCK rats): No differences
cAMP concentration in bile duct and serum at higher dose [3, 17]: to an even greater extent
cAMP levels in freshly isolated bile ducts [3, 28]: lowered
cAMP levels in serum [3, 28]: lowered
cystic volume and fibrosis score in liver and kidney at higher dose ([4]; higher dose (100 μg/kg, 4 weeks)): even more significant reduction
hepatic fibrosis ([4]; octreotide 10 μg/kg): significant reduction
renal fibrosis ([4]; octreotide 10 μg/kg): significant reduction
cystic volume in kidney [4, 29]: decreased consistently and progressively
cystic volume in liver [4, 29]: decreased consistently and progressively
binding affinity [5]: high affinity
binding affinity [6]: low affinity
